“Also recorded” adds a separate entry of the source. One block for each compound: values may come before it.
Key:
Type in all cases: physicochemical
[1] = Vapor stress of amorphous solid
Procedure: Amorphous Compound I was placed in acetone, ethanol, and water vapor chambers for up to eight days. The solids were collected and analyzed by XRPD for form identification.
Solids of Amorphous Form of Compound I were stressed in acetone and ethanol vapor stress chambers for 4 days. Other aliquots of the solids were stressed in a water vapor chamber for 4 days and 8 days. The remaining solids were analyzed by XRPD.

[2] = Approximate solubility of Compound I in different solvents; settings: for solubility: thermodynamic from solid, ambient temperature, approximate
Procedure: Compound I prepared by the method described in Example 1 was used for the solubility study. Solvents and other reagents were of ACS or HPLC grade and were used as received.
A weighed sample (typically about 20-25 mg) of Compound I was treated at ambient temperature with aliquots (typically ≧50 μL) of the test solvent with sonication between additions. Solvents were either reagent or HPLC grade. Solubility was estimated from the total volume of solvent used to obtain a clear solution, as determined by visual inspection. Solubility is expressed as “less than” when dissolution was not observed. If dissolution occurred after the last aliquot was added then solubility is expressed as “greater than or equal to” (≧). The actual solubilities may be greater than determined, due to over addition of solvent (large aliquots) or slow dissolution rates. Approximate solubilities of Compound I are summarized in Table A. The solubility values have been rounded to the nearest whole number and are reported to the nearest mg/mL.

[3] = Relative humidity stressing experiments; settings: conditions not given
Excerpt: Samples of Compound I were placed uncovered in approximately 58%, 88%, and 97% relative humidity jars. The samples were stored in the jars for approximately 8 days. The solids were collected and analyzed by XRPD for form identification. […] An aliquot of a mixture of Form A+B was stressed at 88% relative humidity for 23 days. Amorphous Form was stressed at 58% and 88% relative humidity for 23 days.

[4] = Moisture sorption/desorption analysis; settings: for form by XRPD of the material remaining after the moisture sorption/desorption analysis: post moisture sorption/desorption
Procedure: Moisture sorption/desorption data were collected on a VTI SGA-100 Vapor Sorption Analyzer. Sorption and desorption data were collected over a range of 5% to 95% relative humidity (RH) at 10% RH intervals under a nitrogen purge. Samples were not dried prior to analysis. Equilibrium criteria used for analysis were less than 0.0100% weight change in 5 minutes, with a maximum equilibration time of 3 hours if the weight criterion was not met. Data were not corrected for the initial moisture content of the samples. NaCl and PVP were used as calibration standards. Moisture sorption and desorption study was conducted on a sample of Form A+B. The sample was prepared by crashed cooling crystallization (Example 3, section A.6) of the polymorphic forms from a ethanol:water (95:5) solution of Compound I. The moisture sorption and desorption study was conducted according to the procedures outlined in Example 3, section B.10. The data collected is plotted in FIG. 13 and summarized in Table L. Moisture sorption and desorption study was conducted on a sample of Form E. The sample was prepared by solvent/antisolvent crystallization (Example 3, section A.7) by the addition of acetonitrile to Compound I in water. The moisture sorption and desorption study was conducted according to the procedures outlined in Example 3, section B.10. The data collected is plotted in FIG. 23 and summarized in Table M. Moisture sorption and desorption study was conducted on a sample of Amorphous Form. The sample was prepared by lyophilolization of a solution of Compound I in water (Example 3, section A.9). The moisture sorption and desorption study was conducted according to the procedures outlined in Example 3, section B.10.

[5] = Thermogravimetric analysis (TGA); settings: from 25° C. to 95° C.
Procedure: Thermogravimetric (TG) analyses were performed using a TA Instruments 2950 thermogravimetric analyzer. Each sample was placed in an aluminum sample pan and inserted into the TG furnace. The furnace was first equilibrated at 25° C., then heated under nitrogen at a rate of 10° C./min, up to a final temperature of 350° C. Nickel and Alumel™ were used as the calibration standards.

SMILES: Cn1c(=O)cc(N2CCC[C@@H](N)C2)n(Cc2ccccc2C#N)c1=O.O=C(O)CCC(=O)O [Amorphous Solid of Compound I]
Color/morphology after vapor stress ([1]; Acetone vapor, 4 days): off white, irregular
Color/morphology after vapor stress ([1]; EtOH vapor, 4 days): off white, irregular
Color/morphology after vapor stress ([1]; Water vapor, 4 days): off white, irregular,
Form after vapor stress (XRPD) ([1]; Water vapor, 4 days): A + D
Color/morphology after vapor stress ([1]; Water vapor, 8 days): white, irregular,
Form after vapor stress (XRPD) ([1]; Water vapor, 8 days): low

solubility ([2]; 2-propanol:water (88:12), organic solvent or mixture, IPA:H2O (88:12)): 11000 µg/mL
solubility ([2]; acetonitrile:water (85:15), organic solvent or mixture, ACN:H2O (85:15)): 101000 µg/mL
solubility ([2]; diethyl ether, organic solvent or mixture, di-Ethyl ether): < 1000 µg/mL
solubility ([2]; ethanol:water (95:5), organic solvent or mixture, EtOH:H2O (95:5)): 5000 µg/mL
Solubility (in words) ([2]; most solvents, except DMF, methanol, TFE, water and water:solvent mixtures): Poor solubility
solubility ([2]; organic solvent or mixture, 1,4-Dioxane): < 1000 µg/mL
solubility ([2]; organic solvent or mixture, 2-Propanol (IPA)): < 1000 µg/mL
solubility ([2]; organic solvent or mixture, Acetone): 2000 µg/mL
solubility ([2]; organic solvent or mixture, Acetonitrile (ACN)): < 1000 µg/mL
solubility ([2]; organic solvent or mixture, Dichloromethane (DCM)): < 1000 µg/mL
solubility ([2]; organic solvent or mixture, Dimethyl Formamide (DMF)): 68000 µg/mL
solubility ([2]; organic solvent or mixture, Ethanol (EtOH)): 2000 µg/mL
solubility ([2]; organic solvent or mixture, Ethyl Acetate (EtOAc)): < 1000 µg/mL
solubility ([2]; organic solvent or mixture, Hexanes): < 1000 µg/mL
solubility ([2]; organic solvent or mixture, Methanol (MeOH)): 20000 µg/mL
solubility ([2]; organic solvent or mixture, Tetrahydrofuran (THF)): < 1000 µg/mL
solubility ([2]; organic solvent or mixture, Toluene): < 1000 µg/mL
solubility ([2]; organic solvent or mixture, Trifluoroethanol (TFE)): > 200000 µg/mL
solubility ([2]; Water (H2O)): 51000 µg/mL
SMILES: Cn1c(=O)cc(N2CCC[C@@H](N)C2)n(Cc2cc(F)ccc2C#N)c1=O [Compound I, 2-[6-(3-amino-piperidin-1-yl)-3-methyl-2,4-dioxo-3,4-dihydro-2H-pyrimidin-1-ylmethyl]-4-fluoro-benzonitrile succinate]

SMILES: Cn1c(=O)cc(N2CCC[C@@H](N)C2)n(Cc2cc(F)ccc2C#N)c1=O.O=C(O)CCC(=O)O [Form B]
form change in additional relative humidity stressing studies [3]: converted to Form A

SMILES: Cn1c(=O)cc(N2CCC[C@@H](N)C2)n(Cc2cc(F)ccc2C#N)c1=O.O=C(O)CCC(=O)O [Form E]
Weight % chg ([4]; Samp RH 5.03%, 24.77° C., elapsed 730.6 min (desorption)): −1.322%
Weight % chg ([4]; Samp RH 5.23%, 24.77° C., elapsed 138.3 min): −1.268%
Weight % chg ([4]; Samp RH 14.89%, 24.78° C., elapsed 154.5 min (sorption)): −1.187%
Weight % chg ([4]; Samp RH 14.94%, 24.79° C., elapsed 557.2 min (desorption)): −0.102%
Weight % chg ([4]; Samp RH 24.87%, 24.78° C., elapsed 170.5 min (sorption)): −1.074%
Weight % chg ([4]; Samp RH 25.02%, 24.79° C., elapsed 543.5 min (desorption)): −0.013%
Weight % chg ([4]; Samp RH 34.83%, 24.78° C., elapsed 184.5 min (sorption)): −0.947%
Weight % chg ([4]; Samp RH 35.13%, 24.79° C., elapsed 526.0 min (desorption)): 0.112%
Weight % chg ([4]; Samp RH 35.22%, 24.77° C., elapsed 0.1 min (start)): 0.000%
Weight % chg ([4]; Samp RH 44.87%, 24.78° C., elapsed 203.4 min (sorption)): −0.755%
Weight % chg ([4]; Samp RH 45.03%, 24.78° C., elapsed 512.2 min (desorption)): 0.236%
Weight % chg ([4]; Samp RH 55.04%, 24.79° C., elapsed 253.5 min (sorption)): −0.223%
Weight % chg ([4]; Samp RH 55.05%, 24.78° C., elapsed 499.6 min (desorption)): 0.398%
Weight % chg ([4]; Samp RH 65.05%, 24.78° C., elapsed 281.1 min (sorption)): 0.325%
Weight % chg ([4]; Samp RH 65.16%, 24.78° C., elapsed 487.4 min (desorption)): 0.616%
Weight % chg ([4]; Samp RH 74.87%, 24.78° C., elapsed 301.2 min (sorption)): 0.608%
Weight % chg ([4]; Samp RH 75.25%, 24.78° C., elapsed 471.9 min (desorption)): 0.949%
Weight % chg ([4]; Samp RH 84.67%, 24.79° C., elapsed 322.2 min (sorption)): 1.410%
Weight % chg ([4]; Samp RH 85.18%, 24.77° C., elapsed 452.4 min (desorption)): 1.632%
Weight % chg ([4]; Samp RH 94.73%, 24.78° C., elapsed 415.8 min (sorption)): 4.216%
weight loss on equilibration at 5% relative humidity ([4]; equilibration at 5% RH): 1.3%
form by XRPD of the material remaining after the moisture sorption/desorption analysis [4]: a mixture of Form A and Form E; also recorded: A + small quantity of E

SMILES: Cn1c(=O)cc(N2CCC[C@@H](N)C2)n(Cc2ccccc2C#N)c1=O.O=C(O)CCC(=O)O [Amorphous Form]
weight lost on desorption ([4]; 95-5% RH): Approximately 4.7%
Weight % chg ([4]; Samp RH 4.97%, 25.05° C., elapsed 1278.0 min (desorption)): −1.269%
Weight % chg ([4]; Samp RH 5.09%, 25.06° C., elapsed 84.0 min): −0.975%
Weight % chg ([4]; Samp RH 14.98%, 25.06° C., elapsed 113.6 min (sorption)): −0.589%
Weight % chg ([4]; Samp RH 15.06%, 25.04° C., elapsed 1243.6 min (desorption)): −1.148%
Weight % chg ([4]; Samp RH 24.92%, 25.05° C., elapsed 158.4 min (sorption)): −0.166%
Weight % chg ([4]; Samp RH 25.13%, 25.05° C., elapsed 1210.7 min (desorption)): −1.026%
Weight % chg ([4]; Samp RH 34.90%, 25.04° C., elapsed 277.5 min (sorption)): 0.841%
Weight % chg ([4]; Samp RH 35.06%, 25.05° C., elapsed 1179.2 min (desorption)): −0.912%
Weight % chg ([4]; Samp RH 41.98%, 25.04° C., elapsed 0.1 min (start)): 0.000%
Weight % chg ([4]; Samp RH 45.05%, 25.03° C., elapsed 392.7 min (sorption)): 2.393%
Weight % chg ([4]; Samp RH 45.07%, 25.05° C., elapsed 1144.4 min (desorption)): −0.776%
Weight % chg ([4]; Samp RH 54.99%, 25.02° C., elapsed 470.8 min (sorption)): 4.540%
Weight % chg ([4]; Samp RH 55.11%, 25.04° C., elapsed 1092.3 min (desorption)): −0.545%
Weight % chg ([4]; Samp RH 64.90%, 25.02° C., elapsed 508.0 min (sorption)): 6.988%
Weight % chg ([4]; Samp RH 65.07%, 25.03° C., elapsed 1039.8 min (desorption)): −0.280%
Weight % chg ([4]; Samp RH 74.82%, 25.02° C., elapsed 654.6 min (sorption)): 0.437%
Weight % chg ([4]; Samp RH 74.92%, 25.02° C., elapsed 957.5 min (desorption)): 0.176%
Weight % chg ([4]; Samp RH 84.78%, 25.03° C., elapsed 703.8 min (sorption)): 0.922%
Weight % chg ([4]; Samp RH 85.31%, 25.02° C., elapsed 877.9 min (desorption)): 1.010%
Weight % chg ([4]; Samp RH 94.59%, 25.02° C., elapsed 806.9 min (sorption)): 3.400%
Post MB XRPD (form after moisture sorption/desorption analysis) ([4]; after moisture sorption/desorption): Crystalline, Form A (FIG. 31)
weight lost on sorption ([4]; at 75% relative humidity): Approximately 7%
weight loss on equilibration at 5% relative humidity ([4]; equilibration at 5% RH): 1.0%
weight lost on equilibration ([4]; equilibration at 5% RH): 1.0% weight lost on equilibration at 5% RH,
weight gain ([4]; from 5-95% RH): 4.4%
weight gain on sorption ([4]; from 75% to 95% relative humidity): 4.4%
weight lost ([4]; from 95-5% RH): 4.7%
form by XRPD of the material remaining after the moisture sorption/desorption analysis [4]: Form A; also recorded: low crystallinity A
weight gained on sorption ([4]; up to 65% relative humidity): Approximately 8%
TGA weight loss [5]: 1.8%
TGA weight loss ([5]; lyophilized from Compound I in water): 1.8% weight loss from 25 °C to 95 °C

Source: US20080227798A1, “POLYMORPHS OF SUCCINATE SALT OF 2-[6-(3-AMINO-PIPERIDIN-1-YL)-3-METHYL-2,4-DIOXO-3,4-DIHYDRO-2H-PYRIMIDIN-1-YLMETHY]-4-FLUOR-BENZONITRILE AND METHODS OF USE THEREFOR” (priority 2006, published 2008)
